Key:
Type in all cases: cell-based
[1] = test system: mixed inoculum (Ps. aeruginosa, Y. tropicalis, H. resinae); test: Microbial resistance of biodiesel fuel, overall statements; details: absence of biocide
[2] = test system: Hormoconis resinae ATCC#20495; test: Microbial testing in diesel fuel, plate count
[3] = test system: Hormoconis resinae ATCC#20495; test: Microbial testing in biodiesel fuel, plate count; details: Biocide 0 ppm
[4] = test system: Pseudomonas aeruginosa ATCC#33988; test: Microbial testing in biodiesel fuel, plate count; details: Biocide 0 ppm
[5] = test system: Yarrowia tropicalis ATCC#48138; test: Microbial testing in diesel fuel, plate count
[6] = test system: Pseudomonas aeruginosa ATCC#33988; test: Microbial testing in diesel fuel, plate count
[7] = test system: Yarrowia tropicalis ATCC#48138; test: Microbial testing in biodiesel fuel, plate count; details: Biocide 0 ppm
[8] = amino alcohol 1500 ppm + FS 135 ppm, Day 0
[9] = amino alcohol 1500 ppm + FS 135 ppm, Wk 1
[10] = amino alcohol 1500 ppm + FS 135 ppm, Wk 2
[11] = amino alcohol 1500 ppm + FS 135 ppm, Wk 3
[12] = amino alcohol 1500 ppm + FS 135 ppm, Wk 4
[13] = amino alcohol 1500 ppm + FS 1000 ppm, Day 0
[14] = amino alcohol 1500 ppm + FS 1000 ppm, Wk 1
[15] = amino alcohol 1500 ppm + FS 1000 ppm, Wk 2
[16] = amino alcohol 1500 ppm + FS 1000 ppm, Wk 3
[17] = amino alcohol 1500 ppm + FS 1000 ppm, Wk 4
[18] = amino alcohol 1500 ppm, no biocide, Day 0
[19] = amino alcohol 1500 ppm, no biocide, Wk 1
[20] = amino alcohol 1500 ppm, no biocide, Wk 2
[21] = amino alcohol 1500 ppm, no biocide, Wk 3
[22] = amino alcohol 1500 ppm, no biocide, Wk 4
[23] = amino alcohol 3000 ppm + FS 135 ppm, Day 0
[24] = amino alcohol 3000 ppm + FS 135 ppm, Wk 1
[25] = amino alcohol 3000 ppm + FS 135 ppm, Wk 2
[26] = amino alcohol 3000 ppm + FS 135 ppm, Wk 3
[27] = amino alcohol 3000 ppm + FS 135 ppm, Wk 4
[28] = amino alcohol 3000 ppm + FS 1000 ppm, Day 0
[29] = amino alcohol 3000 ppm + FS 1000 ppm, Wk 1
[30] = amino alcohol 3000 ppm + FS 1000 ppm, Wk 2
[31] = amino alcohol 3000 ppm + FS 1000 ppm, Wk 3
[32] = amino alcohol 3000 ppm + FS 1000 ppm, Wk 4
[33] = amino alcohol 3000 ppm, no biocide, Day 0
[34] = amino alcohol 3000 ppm, no biocide, Wk 1
[35] = amino alcohol 3000 ppm, no biocide, Wk 2
[36] = amino alcohol 3000 ppm, no biocide, Wk 3
[37] = amino alcohol 3000 ppm, no biocide, Wk 4

SMILES: CCCCCCCC/C=C\CCCCCCCC(=O)[O-].[K+] [KOH/Oleic, potassium oleate]
- effect on microbial resistance of biodiesel [1]: no effect

SMILES: NC1(CO)CCCCC1 [ACyHM, 1-aminocyclohexylmethanol]
- H. resinae organism count [2, 8]: 5.3E5
- H. resinae organism count [2, 9]: 2.5E5
- H. resinae organism count [2, 10]: 2.0E3
- H. resinae organism count [2, 11]: 4.3E2
- H. resinae organism count [2, 12]: 7.0E2
- H. resinae organism count [2, 13]: 5.3E5
- H. resinae organism count [2, 14]: 1.1E4
- H. resinae organism count [2, 15]: <10
- H. resinae organism count [2, 16]: <10
- H. resinae organism count [2, 17]: 8.0E1
- H. resinae organism count [2, 18]: 5.3E5
- H. resinae organism count [2, 19]: 5.0E5
- H. resinae organism count [2, 20]: 1.3E5
- H. resinae organism count [2, 21]: 1.2E5
- H. resinae organism count [2, 22]: 2.7E5
- H. resinae organism count [2, 23]: 5.3E5
- H. resinae organism count [2, 24]: 2.0E3
- H. resinae organism count [2, 25]: 2.7E2
- H. resinae organism count [2, 26]: <10
- H. resinae organism count [2, 27]: 1.6E2
- H. resinae organism count [2, 28]: 5.3E5
- H. resinae organism count [2, 29]: 4.3E2
- H. resinae organism count [2, 30]: <10
- H. resinae organism count [2, 31]: 5.0E1
- H. resinae organism count [2, 32]: <10
- H. resinae organism count [2, 33]: 5.3E5
- H. resinae organism count [2, 34]: 9.4E4
- H. resinae organism count [2, 35]: 4.6E4
- H. resinae organism count [2, 36]: 6.6E4
- H. resinae organism count [2, 37]: 4.8E4
- H. resinae organism count ([3]; aminoalcohol 1500 ppm, Week 1): <1.0E2
- H. resinae organism count ([3]; aminoalcohol 1500 ppm, Week 2): <1.0E2
- H. resinae organism count ([3]; aminoalcohol 1500 ppm, Week 3): <1.0E2
- H. resinae organism count ([3]; aminoalcohol 1500 ppm, Week 4): <1.0E2
- H. resinae organism count ([3]; aminoalcohol 3000 ppm, Week 1): <1.0E2
- H. resinae organism count ([3]; aminoalcohol 3000 ppm, Week 2): <1.0E2
- H. resinae organism count ([3]; aminoalcohol 3000 ppm, Week 3): <1.0E2
- H. resinae organism count ([3]; aminoalcohol 3000 ppm, Week 4): <1.0E2
- Ps. aeruginosa organism count ([4]; aminoalcohol 1500 ppm, Week 1): <1.0E2
- Ps. aeruginosa organism count ([4]; aminoalcohol 1500 ppm, Week 2): <1.0E2
- Ps. aeruginosa organism count ([4]; aminoalcohol 1500 ppm, Week 3): <1.0E2
- Ps. aeruginosa organism count ([4]; aminoalcohol 1500 ppm, Week 4): <1.0E2
- Ps. aeruginosa organism count ([4]; aminoalcohol 3000 ppm, Week 1): <1.0E2
- Ps. aeruginosa organism count ([4]; aminoalcohol 3000 ppm, Week 2): <1.0E2
- Ps. aeruginosa organism count ([4]; aminoalcohol 3000 ppm, Week 3): <1.0E2
- Ps. aeruginosa organism count ([4]; aminoalcohol 3000 ppm, Week 4): <1.0E2
- Y. tropicalis organism count [5, 8]: 2.8E5
- Y. tropicalis organism count [5, 9]: 7.8E4
- Y. tropicalis organism count [5, 10]: 5.0E3
- Y. tropicalis organism count [5, 11]: 6.7E2
- Y. tropicalis organism count [5, 12]: 1.8E2
- Y. tropicalis organism count [5, 13]: 2.8E5
- Y. tropicalis organism count [5, 14]: 1.6E4
- Y. tropicalis organism count [5, 15]: <10
- Y. tropicalis organism count [5, 16]: <10
- Y. tropicalis organism count [5, 17]: <10
- Y. tropicalis organism count [5, 18]: 2.8E5
- Y. tropicalis organism count [5, 19]: 4.5E5
- Y. tropicalis organism count [5, 20]: 1.3E5
- Y. tropicalis organism count [5, 21]: 7.6E4
- Y. tropicalis organism count [5, 22]: 5.3E4
- Y. tropicalis organism count [5, 23]: 2.8E5
- Y. tropicalis organism count [5, 24]: 1.3E2
- Y. tropicalis organism count [5, 25]: <10
- Y. tropicalis organism count [5, 26]: <10
- Y. tropicalis organism count [5, 27]: <10
- Y. tropicalis organism count [5, 28]: 2.8E5
- Y. tropicalis organism count [5, 29]: <10
- Y. tropicalis organism count [5, 30]: <10
- Y. tropicalis organism count [5, 31]: <10
- Y. tropicalis organism count [5, 32]: <10
- Y. tropicalis organism count [5, 33]: 2.8E5
- Y. tropicalis organism count [5, 34]: 9.3E4
- Y. tropicalis organism count [5, 35]: 4.0E4
- Y. tropicalis organism count [5, 36]: 1.6E4
- Y. tropicalis organism count [5, 37]: 2.7E4
- Ps. aeruginosa organism count [6, 8]: 3.7E6
- Ps. aeruginosa organism count [6, 9]: 9.0E5
- Ps. aeruginosa organism count [6, 10]: 4.3E4
- Ps. aeruginosa organism count [6, 11]: 1.1E2
- Ps. aeruginosa organism count [6, 12]: 2.3E2
- Ps. aeruginosa organism count [6, 13]: 3.7E6
- Ps. aeruginosa organism count [6, 14]: 7.8E3
- Ps. aeruginosa organism count [6, 15]: <10
- Ps. aeruginosa organism count [6, 16]: <10
- Ps. aeruginosa organism count [6, 17]: <10
- Ps. aeruginosa organism count [6, 18]: 3.7E6
- Ps. aeruginosa organism count [6, 19]: 5.8E6
- Ps. aeruginosa organism count [6, 20]: 6.3E5
- Ps. aeruginosa organism count [6, 21]: 4.4E5
- Ps. aeruginosa organism count [6, 22]: 8.7E5
- Ps. aeruginosa organism count [6, 23]: 3.7E6
- Ps. aeruginosa organism count [6, 24]: 8.6E2
- Ps. aeruginosa organism count [6, 25]: 7.0E1
- Ps. aeruginosa organism count [6, 26]: <10
- Ps. aeruginosa organism count [6, 27]: 9.0E1
- Ps. aeruginosa organism count [6, 28]: 3.7E6
- Ps. aeruginosa organism count [6, 29]: <10
- Ps. aeruginosa organism count [6, 30]: <10
- Ps. aeruginosa organism count [6, 31]: <10
- Ps. aeruginosa organism count [6, 32]: <10
- Ps. aeruginosa organism count [6, 33]: 3.7E6
- Ps. aeruginosa organism count [6, 34]: 2.0E6
- Ps. aeruginosa organism count [6, 35]: 1.4E5
- Ps. aeruginosa organism count [6, 36]: 7.7E4
- Ps. aeruginosa organism count [6, 37]: 9.0E4
- Y. tropicalis organism count ([7]; aminoalcohol 1500 ppm, Week 1): <1.0E2
- Y. tropicalis organism count ([7]; aminoalcohol 1500 ppm, Week 2): <1.0E2
- Y. tropicalis organism count ([7]; aminoalcohol 1500 ppm, Week 3): <1.0E2
- Y. tropicalis organism count ([7]; aminoalcohol 1500 ppm, Week 4): <1.0E2
- Y. tropicalis organism count ([7]; aminoalcohol 3000 ppm, Week 1): <1.0E2
- Y. tropicalis organism count ([7]; aminoalcohol 3000 ppm, Week 2): <1.0E2
- Y. tropicalis organism count ([7]; aminoalcohol 3000 ppm, Week 3): <1.0E2
- Y. tropicalis organism count ([7]; aminoalcohol 3000 ppm, Week 4): <1.0E2

— patent publication US8546386B2, “Corrosion and microbial control in hydrocarbonaceous compositions” (Dow Global Technologies LLC, priority 2008, dated 2013)
